# Measurements published in patent US20240173285A1, “COMPOSITIONS COMPRISING EPA AND METHODS OF USING THE SAME FOR TREATING AND/OR PREVENTING ENDOTHELIAL DYSFUNCTION IN A SUBJECT” (Amarin Pharmaceuticals Ireland Limited, priority 2021, published 2024).
# Key:
# HUVECs [1] = test: Peroxynitrite (ONOO-) release from HUVECs measured with porphyrinic nanosensor; format: cell-based, human; details: 10 μM 2 hours, then IL-6 12 ng/ml 24 h; for ONOO- Release: calcium ionophore, mean ± SEM, N = 4-5
# From the text: FIG. 5 is a schematic illustration of the ONOO— assay. The nanosensor is used to quantitate endothelial NO and ONOO— release in real time and is made by depositing a sensing material on the tip of carbon fiber with a diameter of only 0.5 μm. The fiber is sealed with nonconductive epoxy and electrically connected to wires (gold, copper) with conductive silver epoxy. Conductive films of polymeric Ni(II) tetrakis (3-methoxy-4-hydroxyphenyl) porphyrin and Mn(III) paracyclophanylporphyrin were used for the NO and ONOO— sensors, respectively.
# Release of ONOO— from HUVECs was measured as previously described. Briefly, in parallel with the cellular preparations for proteomic analysis, HUVECs were stimulated with calcium ionophore and ONOO— was measured using a porphyrinic nanosensor (FIG. 5).
# [2] = test system: heme oxygenase-1 (HMOX-1); test: HMOX-1 expression relative to IL-6 in HUVECs (LC/MS proteomics); format: cell-based, human; details: 10 μM 2 hours, then IL-6 12 ng/ml 24 h
# Protocol: (§1) HUVECs were treated with vehicle, EPA, or DHA (10 μM) for 2 hours, and then challenged with IL-6 (12 ng/ml) for 24 h hours. After incubation, cells were pelleted and frozen at −80° C. until proteomic analysis was performed. Cell pellets were lysed using methanol/chloroform extraction. Proteins were denatured, reduced, alkylated, and trypsin digested. Samples were then prepared for Tandem Mass Tag (TMT) 10plex labeling. A bicinchoninic acid (BCA) assay was performed on each sample to quantify the total protein in each sample, which is important to confirm equal amounts of each sample are added to the multiplex sample. Each peptide in a sample was given a unique, low molecular weight (typically 126-130 Da), and then the samples were combined. Relative protein expression levels among the various treatments were measured using LC/MS proteomic techniques. Following protein digest, peptides are separated over a reverse phase column and then identified based on their mass.
# Each multiplexed sample was then fractionated to increase the overall protein coverage using high pH reversed phase fractionation and analyzed by LC/MS using a Dionex UltiMate 3000 RSLC in tandem with a Q-Exactive/Lumos Orbitrap Mass Spectrometer. The chromatography was performed using a 2-hour gradient on a Thermo Pepmap C18 column (100 Å pore size, 3.0 μm particle size, […]×150 mm) set at 50° C. […]
# [3] = test system: Human pulmonary ECs (PECs); test: Proteomic analysis (LC/MS) of pulmonary ECs treated with EPA and IL-6 for 24 hours; format: cell-based; details: EPA 40 μM + IL-6 12 ng/ml
# Protocol: (§2) Human pulmonary ECs (PECs) and umbilical vein ECs (HUVECs) were treated with vehicle or EPA (40/10 μM in PECs/HUVECs) and IL-6 (12 ng/ml) for 24 hours. Proteomic analysis was performed using liquid chromatography/mass spectroscopy. […] Human pulmonary ECs (PECs) and umbilical vein ECs (HUVECs) were treated with vehicle or EPA (40/10 μM in PECs/HUVECs) and IL-6 (12 ng/ml) for 24 hours. Proteomic analysis was performed using liquid chromatography/mass spectroscopy. […] NO release was measured in HUVECs using tandem porphyrinic nanosensors following stimulation with calcium.
# HUVECs [4] = test: NO release from HUVECs measured with tandem porphyrinic nanosensors; format: cell-based, human; details: for NO Release: then IL-6 12 ng/ml 24 h, calcium ionophore, mean ± SEM, N = 4-5
# Protocol: Human pulmonary ECs (PECs) and umbilical vein ECs (HUVECs) were treated with vehicle or EPA (40/10 μM in PECs/HUVECs) and IL-6 (12 ng/ml) for 24 hours. Proteomic analysis was performed using liquid chromatography/mass spectroscopy. […] NO release was measured in HUVECs using tandem porphyrinic nanosensors following stimulation with calcium.
# NO release from HUVECs was measured as previously described. Briefly, in parallel with the cellular preparations for proteomic analysis, HUVECs were stimulated with calcium ionophore and NO was measured using tandem porphyrinic nanosensors.
# Human pulmonary ECs = test: Proteomic analysis (LC/MS) of pulmonary ECs treated with EPA after IL-6 exposure; format: cell-based; details: IL-6 12 ng/ml 2 hours, then EPA 24 h
# Protocol: Human pulmonary ECs were treated with vehicle or EPA for 24 h after exposure to IL-6 at 12 ng/ml for 2 hours. Proteomic analysis was performed using liquid chromatography/mass spectroscopy to capture relative expression levels. Only significant changes in protein expression between treatment groups >1-fold with a p-value less than 0.05 were analyzed.
# [5] = test system: Platelet endothelial cell adhesion molecule 1 (PECAM-1); test: PECAM-1 expression relative to IL-6 in HUVECs (LC/MS proteomics); format: cell-based, human; details: 10 μM 2 hours, then IL-6 12 ng/ml 24 h
# Protocol: as §1, with “AA” for “DHA”, “mass. Each multiplexed sample was then fractionated to increase the overall protein coverage using high pH reversed phase fractionation and analyzed by LC/MS using a Dionex UltiMate 3000 RSLC in tandem with a Q-Exactive/Lumos Orbitrap Mass Spectrometer. The chromatography was performed using a 2-hour gradient on a Thermo Pepmap C18 column (100 Å pore size, 3.0 μm particle size, […]×150 mm) set at 50° C. […]” for “mass.”
# Human PECs = test: Fatty acid content of PECs by GC/MS; format: cell-based; details: PECs pretreated with EPA 40 μM, IL-6
# Protocol: Human PECs were pretreated with vehicle or EPA (40 μM) for 2 hours, then challenged with IL-6 at 12 ng/ml for 24 hours. Proteomic analysis was performed using LC/MS to capture relative expression levels. Only significant changes in protein expression between treatment groups >2-fold were analyzed. Levels of intercellular adhesion molecule-1 (ICAM-1) were measured by immunochemistry. EPA, docosahexaenoic acid (DHA), docosapentaenoic acid (DPA), palmitic acid (PA), linoleic acid (LA) and arachidonic acid (AA) content was measured by GC/MS.
# [6] = test system: umbilical vein ECs (HUVECs); test: Proteomic analysis (LC/MS) of HUVECs treated with EPA and IL-6 for 24 hours; format: cell-based, human; details: EPA 10 μM + IL-6 12 ng/ml
# Protocol: as §2
# [7] = Clinical study of human participants exposed to high-dose ethyl EPA; format: in vivo; details: high-dose exposure
# From the text: Based on a clinical study of human participants, the inventors have discovered that exposure to a high-dose ethyl EPA (i.e., […]) is associated with fewer anemia AEs and higher hemoglobin and hematocrit. High-dose ethyl EPA exposure is also associated with higher levels of the heme derivative bilirubin, which is a potent antioxidant. […] Both biliverdin and bilirubin are potent antioxidants, but bilirubin is likely the stronger of the two. Bilirubin can be converted back into biliverdin rather than being eliminated, thus perpetuating both compounds' antioxidant effects.
molecule,measurement,setting,value
"CCCCC/C=C\C/C=C\C/C=C\C/C=C\CCCC(=O)O [AA, arachidonic acid, reference compound]",ONOO- Release,HUVECs [1],194 ± 9 nM
"CC/C=C\C/C=C\C/C=C\C/C=C\C/C=C\CCCC(=O)O [EPA, eicosapentaenoic acid]","HMOX-1 Expression Relative to IL-6, Fold Change Increase",[2],1.58 fold
same,upregulation of inducible HMOX-1 compared to IL-6 alone,[2],160%
same,Platelet endothelial cell adhesion molecule (PECAM) downregulation,[3],1.2 fold
same,amyloid-beta precursor protein decrease,[3],1.1 fold
same,heme-oxygenase-1 increase,[3],1.9 fold
same,integrin alpha-V decrease,[3],1.1 fold
same,thrombin receptor decrease,[3],1.3 fold
same,decrease of ONOO— release relative to IL-6 alone,HUVECs [1],17%
same,ONOO- Release,HUVECs [1],181 ± 10 nM
same,increase of NO release compared to IL-6 alone,"HUVECs [4]; 10 μM 2 hours, then IL-6 12 ng/ml 24 h (Example 5)",13%
same,NO Release,HUVECs [4]; 10 μM 2 hours,421 ± 12 nM
same,increase of NO release relative to IL-6 alone,"HUVECs [4]; EPA 10 μM and IL-6 12 ng/ml 24 hours, calcium stimulation (Example 2)",13%
same,ACE level reduction,Human pulmonary ECs,1.1 fold
same,ECE-1 level reduction,Human pulmonary ECs,1.3 fold
same,Hsp90 increase compared to IL-6,Human pulmonary ECs,1.1 fold
same,caveolin-1 downregulation compared to IL-6,Human pulmonary ECs,1.3 fold
same,"PECAM-1 Expression Relative to IL-6, Fold Change Increase",[5],1.22 fold
same,decrease in PECAM-1,[5],120%
same,reduction of PA (palmitic acid) levels,Human PECs,34%
same,Platelet endothelial cell adhesion molecule (PECAM) downregulation,[6],1.2 fold
same,heme-oxygenase-1 increase,[6],1.6 fold
same,integrin alpha-V decrease,[6],1.5 fold
same,superoxide dismutase increase,[6],1.6 fold
IL-6: cytokine interleukin-6 used to challenge endothelial cells (12 ng/ml) [reference compound],ONOO- Release,HUVECs [1],217 ± 10 nM
same,NO Release,HUVECs [4]; 10 μM 2 hours,371 ± 14 nM
"CC/C=C\C/C=C\C/C=C\C/C=C\C/C=C\C/C=C\CCC(=O)O [DHA, docosahexaenoic acid, reference compound]",NO Release,HUVECs [4]; 10 μM 2 hours,404 ± 15 nM
"CC/C=C\C/C=C\C/C=C\C/C=C\C/C=C\CCCC(=O)OCC [ethyl EPA, eicosapentaenoic acid ethyl ester]",anemia AEs,[7],fewer
